In ChEMBL document CHEMBL1156872, “Synthesis and discovery of 2,3-dihydro-3,8-diphenylbenzo[1,4]oxazines as a novel class of potent cholesteryl ester transfer protein inhibitors” (Bioorg Med Chem Lett, 2010):

Legend:
[1] = target: T1, Cholesteryl ester transfer protein (Homo sapiens) (UniProt P11597); test: Inhibition of human cholesteryl ester transfer protein at 1 uM by scintillation proximity assay
T1 sequence (whole entry): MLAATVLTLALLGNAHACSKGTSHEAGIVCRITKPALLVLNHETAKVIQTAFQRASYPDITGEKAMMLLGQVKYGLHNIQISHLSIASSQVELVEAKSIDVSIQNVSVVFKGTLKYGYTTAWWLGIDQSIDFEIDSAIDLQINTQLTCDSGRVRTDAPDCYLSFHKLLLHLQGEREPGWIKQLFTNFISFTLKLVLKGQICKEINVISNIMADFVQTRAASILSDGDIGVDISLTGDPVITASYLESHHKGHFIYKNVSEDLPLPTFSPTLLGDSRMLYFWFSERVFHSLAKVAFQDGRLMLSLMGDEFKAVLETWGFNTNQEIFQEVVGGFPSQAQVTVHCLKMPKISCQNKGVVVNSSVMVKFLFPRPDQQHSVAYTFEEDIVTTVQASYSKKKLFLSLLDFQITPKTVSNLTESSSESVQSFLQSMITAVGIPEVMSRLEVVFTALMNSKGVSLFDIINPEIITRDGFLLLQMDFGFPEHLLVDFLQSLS

[2] = target: T2, Cholesteryl ester transfer protein (Homo sapiens, UniProt P11597); test: Inhibition of human cholesteryl ester transfer protein by scintillation proximity assay
T2 sequence (P11597 whole entry): T1 sequence (whole entry)

[3] = Aqueous solubility at pH 2.0; format: physicochemical; settings: aqueous medium
[4] = Aqueous solubility at pH 7.4; format: physicochemical; settings: aqueous medium
[5] = Half life in human liver microsomes; format: ADME, Microsome

SMILES	inhibition [1]	also measured
O[C@H](CN1c2cccc(-c3cccc(OC(F)(F)F)c3)c2OC[C@H]1c1cccc(OC(F)(F)C(F)F)c1)C(F)(F)F	26%	
O[C@H](CN1c2cccc(-c3cccc(OC(F)(F)F)c3)c2OC[C@@H]1c1cccc(OC(F)(F)C(F)F)c1)C(F)(F)F	23%	
OC(CN1c2cccc(-c3cccc(OC(F)(F)F)c3)c2OCC1c1cccc(OC(F)(F)F)c1)C(F)(F)F (mixture of isomers)	65%	IC50 [2]: 107 nM
CC(C)(O)CN1c2cccc(-c3cccc(OC(F)(F)F)c3)c2OCC1c1cccc(OC(F)(F)C(F)F)c1 (racemic)	29%	
OC(CN1c2cccc(-c3cccc(OC(F)(F)F)c3)c2OCC1c1cccc(OC(F)(F)C(F)F)c1)C(F)(F)F (mixture of isomers)	96%	IC50 [2]: 45 nM
NCCN1c2cccc(-c3cccc(OC(F)(F)F)c3)c2OCC1c1cccc(OC(F)(F)C(F)F)c1 (racemic)	2%	
COc1cccc(C2COc3c(-c4cccc(OC(F)(F)F)c4)cccc3N2CC(O)C(F)(F)F)c1 (mixture of isomers)	29%	
OC(CN1c2cccc(-c3cccc(OC(F)(F)F)c3)c2OCC1c1ccccc1)C(F)(F)F (mixture of isomers)	43%	
C[C@@H](O)CN1c2cccc(-c3cccc(OC(F)(F)F)c3)c2OC[C@@H]1c1cccc(OC(F)(F)C(F)F)c1	28%	
O[C@@H](CN1c2cccc(-c3cccc(OC(F)(F)F)c3)c2CC[C@@H]1c1cccc(OC(F)(F)C(F)F)c1)C(F)(F)F		solubility [3]: < 1 µg/mL; solubility [4]: < 1 µg/mL
C[C@H](O)CN1c2cccc(-c3cccc(OC(F)(F)F)c3)c2OC[C@@H]1c1cccc(OC(F)(F)C(F)F)c1	50%	IC50 [2]: 88 nM
OC(CN1c2cccc(-c3cccc(OC(F)(F)F)c3)c2OCC1c1ccccc1OC(F)(F)C(F)F)C(F)(F)F (mixture of isomers)	6%	
O[C@@H](CN1c2cccc(-c3cc(F)cc(F)c3)c2OC[C@@H]1c1cccc(OC(F)(F)F)c1)C(F)(F)F	100%	
OCCCN1c2cccc(-c3cccc(OC(F)(F)F)c3)c2OCC1c1cccc(OC(F)(F)C(F)F)c1 (racemic)	10%	
O[C@@H](CN1c2cccc(-c3cc(F)c(F)c(F)c3)c2OC[C@@H]1c1cccc(OC(F)(F)C(F)F)c1)C(F)(F)F	101%	
COC(=O)N1c2cccc(-c3cccc(OC(F)(F)F)c3)c2OCC1c1cccc(OC(F)(F)C(F)F)c1 (racemic)	16%	
CCN1c2cccc(-c3cccc(OC(F)(F)F)c3)c2OCC1c1cccc(OC(F)(F)C(F)F)c1 (racemic)	24%	
O[C@H](CF)CN1c2cccc(-c3cccc(OC(F)(F)F)c3)c2OC[C@@H]1c1cccc(OC(F)(F)C(F)F)c1	77%	half-life [5]: 21 min
OC(CN1c2cccc(-c3cccc(OC(F)(F)F)c3)c2OCC1c1cccc(C(F)(F)F)c1)C(F)(F)F (mixture of isomers)	37%	
CCOc1cccc(C2COc3c(-c4cccc(OC(F)(F)F)c4)cccc3N2CC(O)C(F)(F)F)c1 (mixture of isomers)	56%	
O[C@@H](CN1c2cccc(-c3cc(F)c(F)c(F)c3)c2OC[C@@H]1c1cccc(OC(F)(F)F)c1)C(F)(F)F	94%	
